Measurements as given in the Kinase Knowledgebase extract (Sharma et al. 2016).

Biological target: PIK3CB;PIK3CG;PIK3CD;PIK3CA (human) (UniProt P48736)
Assay: Enzyme Assay

Row | Structure (SMILES) | IC50
1 | CN1CCC(OCCN2CCC[C@H](n3nc(C(=O)N4CCOCC4)c4c3-c3ccccc3S(=O)(=O)C4)C2)CC1 | 0.02 µM
2 | CC(=O)Nc1cccc2c1S(=O)(=O)Cc1c(C(=O)N3CCOCC3)nn(-c3ccccc3)c1-2 | 9.88 µM
3 | CC(=O)Nc1nc2c(s1)S(=O)(=O)Cc1c(C(=O)N3CCOCC3)nn(C3CCOCC3)c1-2 | 0.284 µM
4 | CS(=O)(=O)Nc1cccc(-n2nc(C(=O)N3CCOCC3)c3c2-c2ccccc2S(=O)(=O)C3)c1 | 1.78 µM
5 | CC(C)(C)C1CCC(n2nc(C(=O)N3CCOCC3)c3c2-c2ccccc2S(=O)(=O)C3)CC1 (configuration not stated) | 4.12 µM
6 | O=C(c1nn(-c2ccccc2)c2c1CS(=O)(=O)c1cc(C(F)(F)F)ccc1-2)N1CCOCC1 | 3.06 µM
7 | COC1CCN(Cc2cccc(-n3nc(C(=O)N4CCOCC4)c4c3-c3ccccc3S(=O)(=O)C4)c2)CC1 | 0.24 µM
8 | O=C(c1nn(C2CCN(CCN3CC(F)(F)C3)C2)c2c1CS(=O)(=O)c1ccccc1-2)N1CCOCC1 (configuration not stated) | 0.156 µM
9 | O=C(c1nn(CC2CCOCC2)c2c1CS(=O)(=O)c1ccccc1-2)N1CCOCC1 | 0.789 µM
10 | CN(C)C(=O)c1ccc2c(c1)-c1c(c(C(=O)N3CCOCC3)nn1-c1ccccc1)CS2(=O)=O | 3.73 µM
11 | O=C(c1nn(-c2cccc(CN3CCCCC3)c2)c2c1CS(=O)(=O)c1ccccc1-2)N1CCOCC1 | 0.394 µM
12 | CS(=O)(=O)C1CCC(n2nc(C(=O)N3CCOCC3)c3c2-c2ccccc2S(=O)(=O)C3)CC1 (configuration not stated) | 2.1 µM
13 | O=C(c1nn(CCc2ccccn2)c2c1CS(=O)(=O)c1ccccc1-2)N1CCOCC1 | 1.92 µM
14 | Cc1nnc(-c2cccc(-n3nc(C(=O)N4CCOCC4)c4c3-c3ccccc3S(=O)(=O)C4)c2)s1 | 0.661 µM
15 | CN(C)Cc1cccc(-n2nc(C(=O)N3CCOCC3)c3c2-c2ccccc2S(=O)(=O)C3)c1 | 1.11 µM
16 | COc1ccc2c(c1)S(=O)(=O)Cc1c(C(=O)N3CCOCC3)nn([C@@H]3CCCN(CCC4CCOCC4)C3)c1-2 | 10.3 µM
17 | COC1CCN(C(=O)c2cccc(-n3nc(C(=O)N4CCOCC4)c4c3-c3ccccc3S(=O)(=O)C4)c2)CC1 | 0.302 µM
18 | O=C(c1nn(-c2cccc(-c3ccncc3)c2)c2c1CS(=O)(=O)c1ccccc1-2)N1CCOCC1 | 0.193 µM
19 | O=C(c1nn(C2CCN(C3CCOCC3)C2)c2c1CS(=O)(=O)c1ccccc1-2)N1CCOCC1 (configuration not stated) | 0.077 µM
20 | CN1CCN(Cc2ccc(-n3nc(C(=O)N4CCOCC4)c4c3-c3ccccc3S(=O)(=O)C4)cn2)CC1 | 0.335 µM
21 | Nc1ccc2c(c1)S(=O)(=O)Cc1c(C(=O)N3CCOCC3)nn(-c3ccccc3)c1-2 | 1.13 µM
22 | CC1COCCN1CCN1CCC[C@H](n2nc(C(=O)N3CCOCC3)c3c2-c2ccccc2S(=O)(=O)C3)C1 (some centres not stated) | 0.101 µM
23 | O=C(c1nn(-c2cccc(-c3ccccc3)c2)c2c1CS(=O)(=O)c1ccccc1-2)N1CCOCC1 | 0.764 µM

Row | Structure (SMILES) | IC50
24 | CN(C)CC(C)(C)c1ccc(-n2nc(C(=O)N3CCOCC3)c3c2-c2ccccc2S(=O)(=O)C3)cc1 | 0.159 µM
25 | O=C(c1nn(C2CCCN(CCC3CCOCC3)C2)c2c1CS(=O)(=O)c1ncccc1-2)N1CCOCC1 (configuration not stated) | 0.061 µM
26 | CC(=O)OCCN1CCC(n2nc(C(=O)N3CCOCC3)c3c2-c2ccccc2S(=O)(=O)C3)C1 (configuration not stated) | 0.871 µM
27 | COCc1ccc(-n2nc(C(=O)N3CCOCC3)c3c2-c2ccccc2S(=O)(=O)C3)cc1 | 0.667 µM
28 | COC1CN(Cc2ccc(-n3nc(C(=O)N4CCOCC4)c4c3-c3ccccc3S(=O)(=O)C4)cc2)C1 | 0.165 µM
29 | O=C(CC1CCCCC1)N1CCC(n2nc(C(=O)N3CCOCC3)c3c2-c2ccccc2S(=O)(=O)C3)C1 (configuration not stated) | 0.711 µM
30 | Cc1nc(CN2CCCC(n3nc(C(=O)N4CCOCC4)c4c3-c3ccccc3S(=O)(=O)C4)C2)no1 (configuration not stated) | 0.134 µM
31 | O=C(c1nn(-c2ccccc2Br)c2c1CS(=O)(=O)c1ccccc1-2)N1CCOCC1 | 5.5 µM
32 | O=C(c1nn(C2CN(CCC3CCOCC3)C2)c2c1CS(=O)(=O)c1ccccc1-2)N1CCOCC1 | 0.095 µM
33 | O=C(c1nn(-c2ccccc2)c2c1CS(=O)(=O)c1ccccc1-2)N1CCCOCC1 | 9.07 µM
34 | O=C(c1nn(CC2CCNCC2)c2c1CS(=O)(=O)c1ccccc1-2)N1CCOCC1 | 0.531 µM
35 | O=C(c1nn(C2CCCNC2)c2c1CS(=O)(=O)c1cc(OC(F)(F)F)ccc1-2)N1CCOCC1 (configuration not stated) | 10.5 µM
36 | O=C(c1nn(C2CCNCC2)c2c1CS(=O)(=O)c1ccccc1-2)N1CCOCC1 | 1.52 µM
37 | O=C(c1nn([C@H]2CCCN(CCN3CCC(F)CC3)C2)c2c1CS(=O)(=O)c1ccccc1-2)N1CCOCC1 | 0.025 µM
38 | O=C(c1nn(C2CCCN(CCn3cccn3)C2)c2c1CS(=O)(=O)c1ccccc1-2)N1CCOCC1 (configuration not stated) | 0.169 µM
39 | COCCN1CCC(Cn2nc(C(=O)N3CCOCC3)c3c2-c2ccccc2S(=O)(=O)C3)CC1 | 0.681 µM
40 | O=C(c1nn([C@@H]2CCCN(CCN3CCOCC3)C2)c2c1CS(=O)(=O)c1c(Cl)cccc1-2)N1CCOCC1 | 5.23 µM
41 | O=C(c1nn(-c2ccccc2)c2c1CS(=O)(=O)c1ncccc1-2)N1CCOCC1 | 0.53 µM
42 | COCCNC(=O)c1cccc(-n2nc(C(=O)N3CCOCC3)c3c2-c2ccccc2S(=O)(=O)C3)c1 | 1.11 µM
43 | COc1ccccc1-n1nc(C(=O)N2CCOCC2)c2c1-c1ccccc1S(=O)(=O)C2 | 14.8 µM
44 | CC(C)(C)CCN1CCCC(n2nc(C(=O)N3CCOCC3)c3c2-c2ccccc2S(=O)(=O)C3)C1 (configuration not stated) | 0.587 µM
45 | CC(=O)Nc1ccc2c(c1)-c1c(c(C(=O)N3CCOCC3)nn1-c1ccccc1)CS2(=O)=O | 0.876 µM

More lines, in order of falling IC50, values ahead:

Row | IC50 | Structure (SMILES)
46 | 10.3 µM | O=C(c1nn(-c2ccc(-c3ccccc3)cc2)c2c1CS(=O)(=O)c1ccccc1-2)N1CCOCC1
47 | 6.69 µM | O=C(c1nn(-c2cccc(-c3ncon3)c2)c2c1CS(=O)(=O)c1ccccc1-2)N1CCOCC1
48 | 4.2 µM | Cc1ccc(F)cc1-n1nc(C(=O)N2CCOCC2)c2c1-c1ccccc1S(=O)(=O)C2
49 | 3.41 µM | O=C(c1ccc2c(c1)-c1c(c(C(=O)N3CCOCC3)nn1-c1ccccc1)CS2(=O)=O)N1CCCCC1
50 | 3.11 µM | CN(C)CCCn1nc(C(=O)N2CCOCC2)c2c1-c1ccccc1S(=O)(=O)C2
51 | 3.01 µM | O=C(c1nn(C2CCCNC2)c2c1CS(=O)(=O)c1ccccc1-2)N1CCOCC1 (configuration not stated)
52 | 2.69 µM | O=C(c1nn(-c2cccc(Nc3ccccc3)c2)c2c1CS(=O)(=O)c1ccccc1-2)N1CCOCC1
53 | 2.08 µM | O=C(c1nn(-c2ccc3nn(Cc4ccccc4)cc3c2)c2c1CS(=O)(=O)c1ccccc1-2)N1CCOCC1
54 | 1.92 µM | CCc1noc(Cn2nc(C(=O)N3CCOCC3)c3c2-c2ccccc2S(=O)(=O)C3)n1
55 | 1.59 µM | O=C(c1nn(-c2ccccn2)c2c1CS(=O)(=O)c1ccccc1-2)N1CCOCC1
56 | 1.51 µM | CN(C)CCn1nc(C(=O)N2CCOCC2)c2c1-c1ccccc1S(=O)(=O)C2
57 | 1.32 µM | COc1cccc(-n2nc(C(=O)N3CCOCC3)c3c2-c2ccccc2S(=O)(=O)C3)c1
58 | 1.26 µM | O=C(NC1CCOCC1)c1cccc(-n2nc(C(=O)N3CCOCC3)c3c2-c2ccccc2S(=O)(=O)C3)c1
59 | 1.2 µM | CC(C)(C)OC(=O)N1CCC(n2nc(C(=O)N3CCOCC3)c3c2-c2ccccc2S(=O)(=O)C3)C1 (configuration not stated)
60 | 1.13 µM | O=C(c1nn(-c2cccnc2)c2c1CS(=O)(=O)c1ccccc1-2)N1CCOCC1
61 | 0.997 µM | COCc1cccc(-n2nc(C(=O)N3CCOCC3)c3c2-c2ccccc2S(=O)(=O)C3)c1
62 | 0.957 µM | NC(=O)c1cccc(-n2nc(C(=O)N3CCOCC3)c3c2-c2ccccc2S(=O)(=O)C3)c1
63 | 0.826 µM | O=C(c1nn(-c2cccc(-c3ccoc3)c2)c2c1CS(=O)(=O)c1ccccc1-2)N1CCOCC1
64 | 0.815 µM | O=C(c1nn(C2CCCN(CCO)C2)c2c1CS(=O)(=O)c1ccccc1-2)N1CCOCC1 (configuration not stated)
65 | 0.692 µM | O=C(c1nn(C2CCN(CCC3CCOCC3)CC2)c2c1CS(=O)(=O)c1ccccc1-2)N1CCOCC1
66 | 0.635 µM | COCCOCCN1CCCC(n2nc(C(=O)N3CCOCC3)c3c2-c2ccccc2S(=O)(=O)C3)C1 (configuration not stated)

Row | IC50 | Structure (SMILES)
67 | 0.502 µM | O=C(c1cccc(-n2nc(C(=O)N3CCOCC3)c3c2-c2ccccc2S(=O)(=O)C3)c1)N1CCCC(CO)C1 (configuration not stated)
68 | 0.477 µM | O=C(c1nn(-c2ccccc2)c2c1CS(=O)(=O)c1nccn1-2)N1CCOCC1
69 | 0.395 µM | O=C(c1nn(-c2ccc(CN3CC(F)(F)C3)cc2)c2c1CS(=O)(=O)c1ccccc1-2)N1CCOCC1
70 | 0.371 µM | O=C(c1cccc(-n2nc(C(=O)N3CCOCC3)c3c2-c2ccccc2S(=O)(=O)C3)c1)N1CCC(O)CC1
71 | 0.368 µM | Nc1ccc2c(c1)-c1c(c(C(=O)N3CCOCC3)nn1-c1ccccc1)CS2(=O)=O
72 | 0.3 µM | Cc1noc(C)c1-c1cccc(-n2nc(C(=O)N3CCOCC3)c3c2-c2ccccc2S(=O)(=O)C3)c1
73 | 0.257 µM | O=C(c1nn(C2CCN(CCn3cccn3)C2)c2c1CS(=O)(=O)c1ccccc1-2)N1CCOCC1 (configuration not stated)
74 | 0.246 µM | COC1CCCN(C(=O)c2cccc(-n3nc(C(=O)N4CCOCC4)c4c3-c3ccccc3S(=O)(=O)C4)c2)C1 (configuration not stated)
75 | 0.232 µM | O=C(c1nn(-c2cccc(CN3CCSCC3)c2)c2c1CS(=O)(=O)c1ccccc1-2)N1CCOCC1
76 | 0.229 µM | O=C(c1nn(-c2ccc(CN3CC(F)C3)cc2)c2c1CS(=O)(=O)c1ccccc1-2)N1CCOCC1
77 | 0.179 µM | O=C(c1nn(-c2cccc(OCCn3ccnc3)c2)c2c1CS(=O)(=O)c1ccccc1-2)N1CCOCC1
78 | 0.156 µM | O=C(c1nn(-c2ccc(CNC3CCOC3)cc2)c2c1CS(=O)(=O)c1ccccc1-2)N1CCOCC1 (configuration not stated)
79 | 0.155 µM | O=C(c1nn(C2CCCN(CCC3CCCCC3)C2)c2c1CS(=O)(=O)c1ccccc1-2)N1CCOCC1 (configuration not stated)
80 | 0.133 µM | O=C(c1nn([C@H]2CCCN(c3ccncc3)C2)c2c1CS(=O)(=O)c1ccccc1-2)N1CCOCC1
81 | 0.08 µM | O=C1CCCN1CCN1CCC[C@H](n2nc(C(=O)N3CCOCC3)c3c2-c2ccccc2S(=O)(=O)C3)C1
82 | 0.038 µM | O=C(c1nn(C2CCCN(CCN3CC(F)(F)C3)C2)c2c1CS(=O)(=O)c1c(F)cccc1-2)N1CCOCC1 (configuration not stated)
83 | 0.034 µM | O=C(c1nn(C2CCCN(CCN3CC[C@@H](F)C3)C2)c2c1CS(=O)(=O)c1ccccc1-2)N1CCOCC1 (some centres not stated)
84 | 0.032 µM | O=C(c1nn([C@H]2CCCN(CCN3CC[C@@H](F)C3)C2)c2c1CS(=O)(=O)c1ccccc1-2)N1CCOCC1
85 | 0.031 µM | COCCN1CCC[C@H](n2nc(C(=O)N3CCOCC3)c3c2-c2cccc(F)c2S(=O)(=O)C3)C1
86 | 0.029 µM | CC1CN(CCN2CCC[C@H](n3nc(C(=O)N4CCOCC4)c4c3-c3ccccc3S(=O)(=O)C4)C2)CCO1 (some centres not stated)
87 | 0.028 µM | CN1CCC(N2CCC[C@H](n3nc(C(=O)N4CCOCC4)c4c3-c3ccccc3S(=O)(=O)C4)C2)CC1
